According to the CheMixHub drug solubility set:

Assay: xn = mol fraction of the nth substance listed, in the solute-free solvent

O=C1CCc2ccc(OCCCCN3CCN(c4cccc(Cl)c4Cl)CC3)cc2N1 + CCC(C)=O + CCCO
solubility (g/100 g solution)
Details	278.15 K	283.15 K	288.15 K	293.15 K	298.15 K	303.15 K	308.15 K	313.15 K	318.15 K
x2 = 0.1	0.703	0.851	1.04	1.22	1.46	1.7	2.04	2.61	3.38
x2 = 0.2	1.03	1.2	1.44	1.69	1.98	2.38	2.87	3.56	4.45
x2 = 0.3	1.32	1.52	1.88	2.29	2.68	3.15	3.67	4.46	5.5
x2 = 0.4	1.6	1.86	2.24	2.74	3.21	3.77	4.34	5.18	6.36
x2 = 0.5	1.86	2.05	2.48	3.03	3.59	4.13	4.81	5.82	7.2
x2 = 0.6	2.04	2.25	2.67	3.18	3.75	4.3	5.16	6.36	7.89
x2 = 0.7	1.98	2.21	2.62	3.12	3.68	4.22	5.04	6.23	7.71
x2 = 0.8	1.84	2.09	2.47	2.96	3.48	4.03	4.72	5.83	7.15
x2 = 0.9	1.68	1.94	2.27	2.69	3.12	3.61	4.21	5.13	6.36

CC(=O)NC(CCC(N)=O)C(=O)O (configuration not stated) + O + CO
solubility (g/100 g solution)
Details	293.15 K	298.15 K	303.15 K	308.15 K	313.15 K	318.15 K
x2 = 0.1998	1.22	1.48	1.76	2.06	2.62	3.27
x2 = 0.4906	2.54	2.73	3.45	4.16	5.01	5.92
x2 = 0.6921	3.1	3.54	4.77	5.99	7.07	8.56
x2 = 0.7712	3.1	3.37	4.17	4.97	6.05	7.41
x2 = 0.8999	3.14	3.34	4.37	5.12	5.77	7.05

O=C(O)c1cc([N+](=O)[O-])ccc1O + CCCO + O
solubility (g/100 g solution)
Details	278.15 K	283.15 K	288.15 K	293.15 K	298.15 K	303.15 K	308.15 K	313.15 K	318.15 K	323.15 K
x2 = 0.03225	0.0803	0.104	0.134	0.171	0.216	0.26	0.316	0.38	0.458	0.542
x2 = 0.06974	0.189	0.227	0.294	0.366	0.45	0.559	0.678	0.817	1.01	1.24
x2 = 0.1139	0.45	0.55	0.689	0.87	1.08	1.3	1.55	1.79	2.07	2.41
x2 = 0.1666	0.839	1.02	1.3	1.63	2.02	2.42	2.82	3.28	3.77	4.3
x2 = 0.2307	1.52	1.91	2.38	2.94	3.59	4.22	4.85	5.61	6.41	7.29
x2 = 0.3103	2.34	2.82	3.45	4.11	4.94	5.73	6.68	7.75	8.82	10.2
x2 = 0.4117	3.55	4.17	4.92	5.66	6.64	7.67	8.85	9.98	11.2	12.6
x2 = 0.5454	4.75	5.34	6.09	7.02	8.12	9.33	10.6	12	13.4	15.1
x2 = 0.7297	5.59	6.57	7.78	8.73	9.96	11.3	12.4	13.8	15.2	16.8

Oc1ccc(Cl)c2cccnc12 + CCOCCO + CCO
solubility (g/100 g solution)
Details	278.15 K	283.15 K	288.15 K	293.15 K	298.15 K	303.15 K	308.15 K	313.15 K	318.15 K	323.15 K
x2 = 0.1134	1.08	1.36	1.64	1.98	2.41	2.88	3.44	4.07	4.85	5.76
x2 = 0.2542	1.61	1.9	2.21	2.69	3.17	3.76	4.43	5.22	6.15	7.04
x2 = 0.434	2.17	2.57	2.99	3.57	4.14	4.77	5.59	6.57	7.64	8.85
x2 = 0.6716	2.81	3.34	3.83	4.5	5.16	6.07	6.97	8.03	9.21	10.5

COC1=CC(=O)CC(C)C12Oc1c(Cl)c(OC)cc(OC)c1C2=O (configuration not stated) + CCC(C)=O + CC(C)O
solubility (g/100 g solution)
Details	283.15 K	288.15 K	293.15 K	298.15 K	303.15 K	308.15 K	313.15 K	318.15 K	323.15 K
x2 = 0.1	0.162	0.217	0.254	0.338	0.391	0.463	0.543	0.669	0.836
x2 = 0.2	0.326	0.374	0.44	0.557	0.606	0.77	0.892	1.05	1.26
x2 = 0.3	0.497	0.571	0.668	0.821	0.894	1.11	1.28	1.52	1.79
x2 = 0.4	0.684	0.779	0.9	1.11	1.23	1.44	1.68	1.93	2.25
x2 = 0.5	0.96	1.07	1.21	1.4	1.59	1.85	2.11	2.4	2.79
x2 = 0.6	1.22	1.37	1.51	1.75	1.98	2.26	2.58	2.92	3.41
x2 = 0.7	1.5	1.66	1.8	2.07	2.31	2.62	2.97	3.34	3.79
x2 = 0.8	1.7	1.87	2.04	2.37	2.6	2.94	3.29	3.75	4.16
x2 = 0.9	1.84	2.02	2.22	2.58	2.81	3.18	3.52	4	4.41

O=C(O)c1cc([N+](=O)[O-])ccc1O + CO + O
solubility (g/100 g solution)
Details	278.15 K	283.15 K	288.15 K	293.15 K	298.15 K	303.15 K	308.15 K	313.15 K	318.15 K	323.15 K
x2 = 0.05881	0.117	0.173	0.235	0.287	0.359	0.429	0.505	0.603	0.726	0.877
x2 = 0.1233	0.41	0.537	0.709	0.886	1.08	1.29	1.53	1.79	2.1	2.45
x2 = 0.1942	1.03	1.3	1.61	2	2.42	2.83	3.35	3.9	4.5	5.22
x2 = 0.2727	2.03	2.54	3.13	3.79	4.57	5.28	6.22	7.27	8.39	9.67
x2 = 0.3599	4.15	4.74	5.63	6.73	7.94	9.14	10.4	11.7	13.1	14.6
x2 = 0.4576	7.29	8.14	9.16	10.4	11.9	13.4	15.2	17.1	19.2	21.5
x2 = 0.5675	9.53	10.8	12.5	14.2	15.9	17.6	19.5	21.5	23.6	25.8
x2 = 0.6923	11.6	12.9	14.7	17	19.2	21.1	23.1	25.2	27.2	29.4
x2 = 0.835	13.8	15.1	16.8	18.7	21.1	23.3	25.3	27.6	29.8	32.4

CCCCOc1ccc(C(=O)CCN2CCCCC2)cc1.Cl + CCO + CCCCCC
solubility (g/100 g solution)
Details	278.15 K	283.15 K	288.15 K	293.15 K	298.15 K	303.15 K	308.15 K	313.15 K	318.15 K	323.15 K
x2 = 0.1	2.56	2.95	3.35	3.75	4.22	4.75	5.33	5.97	6.73	7.53
x2 = 0.2	5.09	5.71	6.4	7.2	8.01	8.91	9.95	11.1	12.4	13.8
x2 = 0.3	7.84	8.72	9.72	10.8	12	13.4	14.9	16.6	18.4	20.3
x2 = 0.4	10.6	11.8	13.1	14.6	16.2	17.9	19.8	21.8	24	26.4
x2 = 0.5	13.7	15.2	16.8	18.6	20.5	22.6	24.8	27.3	29.9	32.6
x2 = 0.6	16.8	18.8	20.6	22.7	25	27.3	29.9	32.6	35.5	38.5
x2 = 0.7	20.3	22.4	24.6	27	29.4	32	35	37.9	41	44.1
x2 = 0.8	23.9	26.3	28.7	31.4	34.1	36.8	39.8	43	46.3	49.5
x2 = 0.9	27.7	30.4	33	35.8	38.8	41.8	45	48.3	51.6	54.9
